Assay results reported in ChEMBL document CHEMBL4819140, “A novel GSK-3 inhibitor binds to GSK-3β via a reversible, time and Cys-199-dependent mechanism” (Bioorg Med Chem, 2021).
Active and inactive are the calls of the source. The calls are words filed in the database; no cut-off is given here.

Assays:
[1] = molecular target: Mitogen-activated protein kinase 1 (Homo sapiens) (UniProt P28482); assay: Inhibition of human recombinant MAPK1 in presence of ATP by Z-lyte kinase assay; settings: concentration not given here
[2] = molecular target: MAP kinase-interacting serine/threonine-protein kinase 2 (Homo sapiens) (UniProt Q9HBH9); assay: Inhibition of human recombinant MNK2 by Lanthascreen assay; settings: concentration not given here
[3] = molecular target: Mitogen-activated protein kinase 15 (Homo sapiens) (UniProt Q8TD08); assay: Inhibition of human recombinant MAPK15 by Lanthascreen assay; settings: concentration not given here
[4] = molecular target: Ribosomal protein S6 kinase alpha-6 (Homo sapiens) (UniProt Q9UK32); assay: Inhibition of human recombinant RSK4 in presence of ATP by Z-lyte kinase assay; settings: concentration not given here
[5] = molecular target: T1, Glycogen synthase kinase-3 beta (Homo sapiens, UniProt P49841); assay: Reversible inhibition of recombinant human GSK-3beta at 70 uM preincubated for 3 hrs followed by diluted with substrate and ATP master mix solution measured upto 1.5 hrs by jump dilution assays relative to control; settings: time 4.5 hrs
Target sequence in this assay (P49841 whole entry, looked up): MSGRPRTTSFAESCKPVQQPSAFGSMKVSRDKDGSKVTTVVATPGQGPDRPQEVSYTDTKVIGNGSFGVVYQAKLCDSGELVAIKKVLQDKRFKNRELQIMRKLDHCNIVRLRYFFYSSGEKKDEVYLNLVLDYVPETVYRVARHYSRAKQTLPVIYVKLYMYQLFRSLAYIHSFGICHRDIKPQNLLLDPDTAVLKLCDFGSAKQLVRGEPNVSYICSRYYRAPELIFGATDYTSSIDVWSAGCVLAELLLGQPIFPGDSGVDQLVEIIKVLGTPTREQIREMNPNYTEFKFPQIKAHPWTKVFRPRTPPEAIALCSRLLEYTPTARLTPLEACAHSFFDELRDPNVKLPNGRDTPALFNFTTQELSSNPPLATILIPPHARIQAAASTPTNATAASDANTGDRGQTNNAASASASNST

[6] = molecular target: Ribosomal protein S6 kinase alpha-1 (Homo sapiens) (UniProt Q15418); assay: Inhibition of human recombinant RSK1 in presence of ATP by Z-lyte kinase assay; settings: concentration not given here
[7] = molecular target: Vascular endothelial growth factor receptor 3 (Homo sapiens) (UniProt P35916); assay: Inhibition of human recombinant FLT4 in presence of ATP by Z-lyte kinase assay; settings: concentration not given here
[8] = molecular target: Mast/stem cell growth factor receptor Kit (Homo sapiens) (UniProt P10721); assay: Inhibition of human recombinant KIT in presence of ATP by Z-lyte kinase assay; settings: concentration not given here
[9] = molecular target: T1, Glycogen synthase kinase-3 beta; settings: dose 100.0 nM
Target sequence in this assay (P49841 whole entry, looked up): as above

[10] = molecular target: Dual specificity mitogen-activated protein kinase kinase 1 (Homo sapiens) (UniProt Q02750); assay: Inhibition of human recombinant MAP2K1 in presence of ATP by Z-lyte kinase assay; settings: concentration not given here
[11] = molecular target: Glycogen synthase kinase-3 alpha (Homo sapiens) (UniProt P49840); assay: Inhibition of human recombinant GSK3A in presence of ATP by Z-lyte kinase assay; settings: concentration not given here
[12] = molecular target: Platelet-derived growth factor receptor alpha (Homo sapiens) (UniProt P16234); assay: Inhibition of human recombinant PDGFRA in presence of ATP by Z-lyte kinase assay; settings: concentration not given here
[13] = molecular target: Dual specificity mitogen-activated protein kinase kinase 1 (Homo sapiens) (UniProt Q02750); assay: Inhibition of human recombinant MAP2K1 by Lanthascreen assay; settings: concentration not given here
[14] = molecular target: T1, Glycogen synthase kinase-3 beta; assay: Reversible inhibition of recombinant human GSK-3beta at 10 uM preincubated for 3 hrs followed by diluted with substrate and ATP master mix solution measured first 30 mins by jump dilution assays; settings: time 3.5 hrs
Target sequence in this assay (P49841 whole entry, looked up): as above

[15] = molecular target: Serine/threonine-protein kinase NLK (Homo sapiens) (UniProt Q9UBE8); assay: Inhibition of human recombinant NLK by Lanthascreen assay; settings: concentration not given here
[16] = molecular target: Platelet-derived growth factor receptor beta (Homo sapiens) (UniProt P09619); assay: Inhibition of human recombinant PDGFRB in presence of ATP by Z-lyte kinase assay; settings: concentration not given here
[17] = molecular target: Dual specificity mitogen-activated protein kinase kinase 3 (Homo sapiens) (UniProt P46734); assay: Inhibition of human recombinant MAP2K3 by Lanthascreen assay; settings: concentration not given here
[18] = molecular target: T1, Glycogen synthase kinase-3 beta; assay: Inhibition of human recombinant GSK3B in presence of ATP by Z-lyte kinase assay; settings: concentration not given here
Target sequence in this assay (P49841 whole entry, looked up): as above

[19] = molecular target: TGF-beta receptor type-2 (Homo sapiens) (UniProt P37173); assay: Inhibition of human recombinant TGFBR2 by Lanthascreen assay; settings: concentration not given here
[20] = molecular target: T1, Glycogen synthase kinase-3 beta; settings: dose 700.0 nM
Target sequence in this assay (P49841 whole entry, looked up): as above
Description: Reversible inhibition of recombinant human GSK-3beta at 700 nM incubated with substrate and ATP master mix solution by jump dilution assays

[21] = molecular target: Dual specificity mitogen-activated protein kinase kinase 2 (Homo sapiens) (UniProt P36507); assay: Inhibition of human recombinant MAP2K2 in presence of 100 uM ATP by Z-lyte kinase assay
[22] = molecular target: Cyclin-dependent kinase-like 5 (Homo sapiens) (UniProt O76039); assay: Inhibition of human recombinant CDKL5 in presence of ATP by Z-lyte kinase assay; settings: concentration not given here
[23] = molecular target: Cyclin-G-associated kinase (Homo sapiens) (UniProt O14976); assay: Inhibition of human recombinant GAK by Lanthascreen assay; settings: concentration not given here
[24] = molecular target: Mitogen-activated protein kinase 3 (Homo sapiens) (UniProt P27361); assay: Inhibition of human recombinant MAPK3 in presence of ATP by Z-lyte kinase assay; settings: concentration not given here
[25] = molecular target: T1, Glycogen synthase kinase-3 beta; assay: Reversible inhibition of recombinant human GSK-3beta at 10 uM preincubated for 3 hrs followed by diluted with substrate and ATP master mix solution measured upto 1.5 hrs by jump dilution assays; settings: time 4.5 hrs, TDE = time-dependent effect
Target sequence in this assay (P49841 whole entry, looked up): as above

[26] = molecular target: Ribosomal protein S6 kinase alpha-2 (Homo sapiens) (UniProt Q15349); assay: Inhibition of human recombinant RSK3 in presence of ATP by Z-lyte kinase assay; settings: concentration not given here
[27] = molecular target: T1, Glycogen synthase kinase-3 beta; assay: Inhibition of human GSK-3beta preincubated for 3 hrs followed by ATP and substrate addition measured by serial dilution assay
Target sequence in this assay (P49841 whole entry): as the sequence (P49841 whole entry, looked up) above

[28] = molecular target: MAP kinase-interacting serine/threonine-protein kinase 1 (Homo sapiens) (UniProt Q9BUB5); assay: Inhibition of human recombinant MNK1 in presence of ATP by Z-lyte kinase assay; settings: concentration not given here
[29] = molecular target: Ribosomal protein S6 kinase alpha-3 (Homo sapiens) (UniProt P51812); assay: Inhibition of human recombinant RSK2 in presence of ATP by Z-lyte kinase assay; settings: concentration not given here
[30] = molecular target: T1, Glycogen synthase kinase-3 beta; settings: dose 200.0 nM
[31] = molecular target: Vascular endothelial growth factor receptor 1 (Homo sapiens) (UniProt P17948); assay: Inhibition of human recombinant FLT1 in presence of ATP by Z-lyte kinase assay; settings: concentration not given here
[32] = molecular target: Dual specificity mitogen-activated protein kinase kinase 2 (Homo sapiens) (UniProt P36507); assay: Inhibition of human recombinant MAP2K2 by Lanthascreen assay; settings: concentration not given here
[33] = molecular target: Receptor-type tyrosine-protein kinase FLT3 (Homo sapiens) (UniProt P36888); assay: Inhibition of human recombinant FLT3 in presence of ATP by Z-lyte kinase assay; settings: concentration not given here
[34] = molecular target: Glycogen synthase kinase-3 beta (Homo sapiens, UniProt P49841, C199A); assay: Inhibition of human GSK-3beta C199A mutant incubated with substrate in presence of ATP measured by serial dilution assay
[35] = Thiol reactivity of the compound with ethanethiol DTT by HPLC analysis; format: physicochemical
[36] = molecular target: MAP kinase-activated protein kinase 5 (Homo sapiens) (UniProt Q8IW41); assay: Inhibition of human recombinant PRAK in presence of ATP by Z-lyte kinase assay; settings: concentration not given here
[37] = Thiol reactivity of the compound with tri-butylphosphine by HPLC analysis; format: physicochemical
[38] = molecular target: Serine/threonine-protein kinase D3 (Homo sapiens) (UniProt O94806); assay: Inhibition of human recombinant PKD3 in presence of ATP by Z-lyte kinase assay; settings: concentration not given here
[39] = molecular target: T1, Glycogen synthase kinase-3 beta; assay: Inhibition of human GSK-3beta assessed as decrease in relative fluorescence unit measured upto 60 mins by kinase-profiling analysis; settings: time min <=60, TDE = time-dependent effect
[40] = molecular target: Serine/threonine-protein kinase D2 (Homo sapiens) (UniProt Q9BZL6); assay: Inhibition of human recombinant PKD2 in presence of ATP by Z-lyte kinase assay; settings: concentration not given here
[41] = molecular target: Dual specificity mitogen-activated protein kinase kinase 5 (Homo sapiens) (UniProt Q13163); assay: Inhibition of human recombinant MAP2K5 by Lanthascreen assay; settings: concentration not given here
[42] = molecular target: Dual specificity mitogen-activated protein kinase kinase 4 (Homo sapiens) (UniProt P45985); assay: Inhibition of human recombinant MAP2K4 by Lanthascreen assay; settings: concentration not given here
[43] = molecular target: Mitogen-activated protein kinase kinase kinase 7 (Homo sapiens) (UniProt O43318); assay: Inhibition of human recombinant MAP3K7 by Lanthascreen assay; settings: concentration not given here
[44] = molecular target: Mitogen-activated protein kinase kinase kinase 20 (Homo sapiens) (UniProt Q9NYL2); assay: Inhibition of human recombinant ZAK by Lanthascreen assay; settings: concentration not given here
[45] = molecular target: AP2-associated protein kinase 1 (Homo sapiens) (UniProt Q2M2I8); assay: Inhibition of human recombinant AAK1 by Lanthascreen assay; settings: concentration not given here
[46] = molecular target: T1, Glycogen synthase kinase-3 beta; assay: Inhibition of human GSK-3beta incubated with substrate in presence of ATP measured by serial dilution assay
Target sequence in this assay (P49841 whole entry): as the sequence (P49841 whole entry, looked up) above

[47] = molecular target: T1, Glycogen synthase kinase-3 beta; settings: dose 400.0 nM, time 4.5 hrs

Chain of Dual specificity mitogen-activated protein kinase kinase 2 (Homo sapiens) (P36507 whole entry): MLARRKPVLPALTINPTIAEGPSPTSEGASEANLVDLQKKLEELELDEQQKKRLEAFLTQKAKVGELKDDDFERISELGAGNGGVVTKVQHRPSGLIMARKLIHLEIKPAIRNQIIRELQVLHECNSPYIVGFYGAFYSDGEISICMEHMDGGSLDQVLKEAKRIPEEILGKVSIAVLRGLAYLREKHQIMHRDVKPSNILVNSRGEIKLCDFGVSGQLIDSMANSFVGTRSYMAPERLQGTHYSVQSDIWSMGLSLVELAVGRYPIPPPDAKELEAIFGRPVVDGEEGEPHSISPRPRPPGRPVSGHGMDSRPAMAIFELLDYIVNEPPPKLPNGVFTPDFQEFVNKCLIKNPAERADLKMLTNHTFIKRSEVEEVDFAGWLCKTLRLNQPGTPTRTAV
Chain of Dual specificity mitogen-activated protein kinase kinase 1 (Homo sapiens) (Q02750 whole entry): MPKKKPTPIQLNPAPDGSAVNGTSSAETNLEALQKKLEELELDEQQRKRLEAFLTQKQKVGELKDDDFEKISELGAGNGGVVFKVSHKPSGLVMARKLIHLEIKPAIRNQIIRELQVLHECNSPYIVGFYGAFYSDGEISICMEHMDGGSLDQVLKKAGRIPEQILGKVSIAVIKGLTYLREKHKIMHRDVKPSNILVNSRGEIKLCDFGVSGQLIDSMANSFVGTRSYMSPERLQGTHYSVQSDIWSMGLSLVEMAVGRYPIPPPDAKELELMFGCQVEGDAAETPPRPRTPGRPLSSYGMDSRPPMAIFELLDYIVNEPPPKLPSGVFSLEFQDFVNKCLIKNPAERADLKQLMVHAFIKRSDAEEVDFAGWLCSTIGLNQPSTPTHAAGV
Chain of TGF-beta receptor type-2 (Homo sapiens) (P37173 whole entry): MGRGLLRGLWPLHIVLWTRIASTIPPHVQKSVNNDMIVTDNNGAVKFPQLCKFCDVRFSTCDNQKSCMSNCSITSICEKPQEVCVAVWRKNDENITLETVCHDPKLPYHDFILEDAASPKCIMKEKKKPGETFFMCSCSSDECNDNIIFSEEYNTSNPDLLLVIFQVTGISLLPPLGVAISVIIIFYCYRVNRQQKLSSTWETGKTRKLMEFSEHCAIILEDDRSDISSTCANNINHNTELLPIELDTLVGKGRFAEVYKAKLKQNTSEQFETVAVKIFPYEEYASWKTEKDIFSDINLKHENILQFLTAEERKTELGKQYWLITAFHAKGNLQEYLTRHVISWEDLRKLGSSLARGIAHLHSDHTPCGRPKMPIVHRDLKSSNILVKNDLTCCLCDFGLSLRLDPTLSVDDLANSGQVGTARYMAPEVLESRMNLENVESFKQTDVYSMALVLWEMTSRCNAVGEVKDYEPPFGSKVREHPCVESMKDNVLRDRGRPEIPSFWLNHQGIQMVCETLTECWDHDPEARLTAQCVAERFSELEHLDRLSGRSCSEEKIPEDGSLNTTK
Chain of MAP kinase-interacting serine/threonine-protein kinase 2 (Homo sapiens) (Q9HBH9 whole entry, looked up): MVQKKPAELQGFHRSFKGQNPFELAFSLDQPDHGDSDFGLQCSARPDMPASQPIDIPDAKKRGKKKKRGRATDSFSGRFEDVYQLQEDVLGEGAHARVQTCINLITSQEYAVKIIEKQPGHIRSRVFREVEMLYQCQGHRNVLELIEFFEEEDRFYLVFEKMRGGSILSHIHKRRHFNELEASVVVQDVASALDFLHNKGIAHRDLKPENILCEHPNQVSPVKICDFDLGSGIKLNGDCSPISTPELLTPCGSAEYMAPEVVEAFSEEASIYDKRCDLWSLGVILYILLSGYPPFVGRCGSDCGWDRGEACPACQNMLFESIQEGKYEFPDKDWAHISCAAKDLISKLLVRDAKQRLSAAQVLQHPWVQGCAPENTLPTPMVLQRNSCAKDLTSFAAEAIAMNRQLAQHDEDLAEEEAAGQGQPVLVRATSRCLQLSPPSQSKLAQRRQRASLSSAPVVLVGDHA
Chain of AP2-associated protein kinase 1 (Homo sapiens) (Q2M2I8 whole entry, looked up): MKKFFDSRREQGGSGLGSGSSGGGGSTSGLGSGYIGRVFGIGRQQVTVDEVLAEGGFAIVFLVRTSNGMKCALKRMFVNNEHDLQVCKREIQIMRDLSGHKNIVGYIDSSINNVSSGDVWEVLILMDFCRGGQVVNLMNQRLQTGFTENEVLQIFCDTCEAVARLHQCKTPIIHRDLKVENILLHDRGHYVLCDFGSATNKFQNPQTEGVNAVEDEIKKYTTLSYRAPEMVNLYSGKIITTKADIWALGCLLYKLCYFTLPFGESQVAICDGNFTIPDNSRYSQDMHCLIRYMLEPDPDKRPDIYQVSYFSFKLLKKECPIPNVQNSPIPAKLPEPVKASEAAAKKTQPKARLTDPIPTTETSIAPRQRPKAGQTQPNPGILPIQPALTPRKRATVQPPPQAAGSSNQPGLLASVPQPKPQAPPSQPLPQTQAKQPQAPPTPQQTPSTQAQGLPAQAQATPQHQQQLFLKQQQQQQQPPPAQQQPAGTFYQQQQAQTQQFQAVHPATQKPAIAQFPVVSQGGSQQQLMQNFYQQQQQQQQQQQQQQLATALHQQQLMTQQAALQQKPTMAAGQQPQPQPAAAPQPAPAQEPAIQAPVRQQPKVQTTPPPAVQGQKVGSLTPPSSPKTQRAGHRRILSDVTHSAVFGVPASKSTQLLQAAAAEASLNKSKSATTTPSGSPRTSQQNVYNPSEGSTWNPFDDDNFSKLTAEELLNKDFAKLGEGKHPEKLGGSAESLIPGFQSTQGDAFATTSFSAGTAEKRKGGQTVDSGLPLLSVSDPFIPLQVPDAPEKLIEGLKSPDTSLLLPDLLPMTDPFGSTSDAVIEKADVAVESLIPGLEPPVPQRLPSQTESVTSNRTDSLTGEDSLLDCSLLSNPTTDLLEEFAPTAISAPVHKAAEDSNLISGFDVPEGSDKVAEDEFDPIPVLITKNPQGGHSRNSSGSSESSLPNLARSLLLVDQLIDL
Chain of MAP kinase-activated protein kinase 5 (Homo sapiens) (Q8IW41 whole entry): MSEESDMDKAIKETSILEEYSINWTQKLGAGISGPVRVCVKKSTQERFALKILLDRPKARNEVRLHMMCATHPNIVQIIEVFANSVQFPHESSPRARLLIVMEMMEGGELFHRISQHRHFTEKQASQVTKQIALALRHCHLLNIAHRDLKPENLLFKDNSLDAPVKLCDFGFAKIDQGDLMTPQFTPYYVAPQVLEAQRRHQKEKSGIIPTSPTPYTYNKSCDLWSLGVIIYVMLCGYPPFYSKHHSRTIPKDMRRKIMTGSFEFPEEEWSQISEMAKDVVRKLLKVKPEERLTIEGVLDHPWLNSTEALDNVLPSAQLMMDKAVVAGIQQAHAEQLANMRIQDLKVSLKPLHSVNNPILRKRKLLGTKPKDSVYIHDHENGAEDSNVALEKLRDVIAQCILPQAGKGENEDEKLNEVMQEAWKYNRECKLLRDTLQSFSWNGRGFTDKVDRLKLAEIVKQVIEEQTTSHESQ
Chain of Mitogen-activated protein kinase 15 (Homo sapiens) (Q8TD08 whole entry): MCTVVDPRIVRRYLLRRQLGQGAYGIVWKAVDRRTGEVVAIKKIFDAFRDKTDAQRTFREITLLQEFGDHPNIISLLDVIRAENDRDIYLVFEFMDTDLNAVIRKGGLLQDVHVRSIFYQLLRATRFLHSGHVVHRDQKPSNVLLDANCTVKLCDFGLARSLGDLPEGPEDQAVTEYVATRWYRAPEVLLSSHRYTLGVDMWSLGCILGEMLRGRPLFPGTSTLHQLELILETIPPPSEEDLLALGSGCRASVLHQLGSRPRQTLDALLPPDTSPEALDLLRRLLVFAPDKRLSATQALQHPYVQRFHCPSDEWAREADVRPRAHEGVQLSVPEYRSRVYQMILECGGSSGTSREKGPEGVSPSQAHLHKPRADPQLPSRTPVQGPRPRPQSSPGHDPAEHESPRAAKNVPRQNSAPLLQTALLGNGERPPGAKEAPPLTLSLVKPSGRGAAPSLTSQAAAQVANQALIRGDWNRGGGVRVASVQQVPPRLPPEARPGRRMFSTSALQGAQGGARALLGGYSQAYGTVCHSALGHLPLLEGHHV

OC1(c2ccccc2)CSC(=S)N1Cc1ccncc1 (configuration not stated) gave an inhibition [1] of 29%, an inhibition [2] of 1% and an inhibition [3] of 26%. For the same compound, the inhibition [4] was 18%, the inhibition [5] was “Active” and the inhibition [6] was 6%. For the same compound, the inhibition [7] was 1.9%, the inhibition [8] was 4% and the inhibition [9] was “inactive”. The inhibition [10] was 6%, the inhibition [11] was 91% and the inhibition [12] was -2%. For the same compound, the inhibition [13] was 5%, the inhibition [14] was “Active” and the inhibition [15] was 24%. It also gave an inhibition [16] of -2%, an inhibition [17] of 7% and an inhibition [18] of 89%. For the same compound, the inhibition [19] was 20%, the inhibition [20] was “inactive” and the inhibition [21] was 7%. It also gave an inhibition [22] of 3.2%, an inhibition [23] of 24% and an inhibition [24] of 26%. For the same compound, the inhibition [25] was “Tde”, the inhibition [26] was 9% and the IC50 [27] was 0.102 µM. For the same compound, the inhibition [28] was -2%, the inhibition [29] was 11% and the inhibition [30] was “inactive”. It also gave an inhibition [31] of 0%, an inhibition [32] of 4% and an inhibition [33] of 2%. For the same compound, the IC50 [34] was 121 µM, the Drug metabolism [35] was “Metabolite_Notdetected” and the inhibition [36] was 60%. For the same compound, the Drug metabolism [37] was “Metabolite_Notdetected”, the inhibition [38] was 10% and the inhibition [39] was “Tde”. For the same compound, the inhibition [40] was 11%, the inhibition [41] was 1% and the inhibition [42] was 12%. For the same compound, the inhibition [43] was 21%, the inhibition [44] was 9% and the inhibition [45] was 11%. It also gave an IC50 [46] of 0.37 µM.
For COc1cc(O)c2c(c1)[C@H]1O[C@@H]1C[C@H](O)[C@H](O)C(=O)/C=C\C[C@H](C)OC2=O [HYPOTHEMYCIN], the inhibition [9] was “inactive”, the inhibition [20] was “inactive” and the IC50 [27] was 0.663 µM. The inhibition [30] was “inactive” and the IC50 [46] was 11.3 µM.
In the case of O=C1Cc2c([nH]c3ccc([N+](=O)[O-])cc23)-c2ccccc2N1, the inhibition [47] is reported as “Active”.
